Data from patent US6676950B2, “Neurokinin receptor antagonists and methods of use thereof for inhibiting HIV infection” (The Children's Hospital of Philadelphia, priority 2001, dated 2004).

Assays:
CCR5 = test: Flow cytometry of CCR5 receptor expression on MDM; format: cell-based, human; details: incubated overnight (24 h); direct immunofluorescence
Experimental: The cells were removed from the culture plate and then resuspended in 100 μl of phosphate-buffered saline (PBS). After incubation with 20 μl of either anti-CCR5-FITC or anti-CXCR4-FITC or anti-CD4-FITC or anti-CD14-FITC for 45 min at 4° C., the cells were washed twice with PBS and fixed with 1% paraformaldehyde in PBS. Fluorescein-conjugated control antibodies were isotype-matched IgG. Fluorescence was analyzed on an EPICS-Elite flow cytometer (Beckman-Coulter Electronics, Hialeah, Fla.).

HIV Bal strain = test: HIV RT activity in culture supernatants of HIV Bal strain-infected MDM; format: cell-based, HIV-1; details: for HIV RT activity increased: MDM, HIV Bal
Experimental: The cells were also incubated with SP and/or anti-SP antibody. In this case, SP was incubated with (1:1000 dilution in 10% FCS DMEM) or without anti-SP antibody at room temperature for 10 min and then the mixture was added to the cell cultures for 2 h. When the cells were treated with the combination of CP-96,345 and SP, or CP-96,345, SP and anti-SP antibody, CP-96,345 was incubated with the cell culture for 10 min and then SP was added to the MDM or CP-96,345, SP and anti-SP (1:1000 in 10% FCS DMEM) were incubated for 10 min at room temperature and the mixture was incubated with the MDM for 2 h before infection with HIV. Untreated MDM served as controls. The cells were treated prior to, during, and throughout the infection.
HIV Infection: After 2 h incubation with or without the reagents described above, the cells were infected with equal amounts of cell-free HIV based on p24 antigen content (20 ng/10^6 cells) overnight, and then washed to remove unbound virus. Fresh media containing SP and/or CP-96,345 or anti-SP antibody were added to the MDM as described above. The culture media and the reagents were replaced twice weekly. The culture supernatants were harvested for HIV reverse transcriptase (RT) activity determinations. After HIV infection, the MDM were incubated for 8 to 12 days. At the termination of the experiments, cellular RNA was extracted for assessment of HIV gag gene expression using RT-PCR or real time RT-PCR assays.
The HIV RT activity assay was carried out based on the technique of Willey et al. (30) with modification (22).

HIV LTR promoter = test: HIV LTR-driven CAT activity assay in U38 cells; format: cell-based
Text: ACH-2 and U38 cell lines (25, 26) were obtained from the NIH AIDS Reagent Program. DNA extracted from ACH-2 cells was used as a positive standard for HIV DNA PCR as previously reported (27). The U38 cell line contains stably integrated, silent copies of the HIV LTR (long terminal repeat) promoter linked to a CAT (chloramphenicol acetyltransferase) gene and was used to study the effect of SP and/or CP-96,345 and R-113281 on the activation of HIV LTR promoter.
Chloramphenicol acetyltransferase (CAT) activity assay: U38 cells (2×10^6 cells) were incubated with different concentrations of SP and/or CP-96,345 or R-113281 for 48 h. Untreated U38 cells were used as a background control. Cellular proteins were extracted using 1X Reporter Lysis Bufffer (Promega Corp., Madison, Wis.). The lysates were incubated with a mixture containing 0.15 μCi of ^14C-labeled chloramphenicol (DuPont Inc., Boston, Mass.) and 200 μg/ml of n-Butyryl CoA (Promega Corp., Madison, Wis.) in a total volume of 125 μl at 37° C. for 3 h. The acetylated forms of chloramphenicol were extracted with xylene (Aldrich Chemical Company, Milwaukee, Wis.). CAT activity of each sample was quantified using a liquid-scintillation counter (Packard Instrument Company, Downers Grove, Ill.). The results were expressed as the ratio of CAT activity (CPM) of the SP and/or CP-96,345-treated or R-113281-treated U38 to that of the background control.

Compound | CCR5 receptor expression on MDM (percentage positive cells) (CCR5) | viral replication as determined by HIV RT activity (HIV Bal strain; 10^−7M, 8 days after infection, vs HIV infection control) | HIV LTR-driven CAT activity (HIV LTR promoter; SP 10^−10 to 10^−6M, 48 h, P<0.05 vs untreated control cells) | HIV LTR-driven CAT activity (HIV LTR promoter; SP (10^−5M), 48 hours) | HIV RT activity increased (HIV Bal strain; SP 10^−6M, 12 days after infection) [%] | HIV RT activity increased (HIV Bal strain; SP 10^−8M, 12 days after infection) [%] | HIV RT activity increased (HIV Bal strain; SP 10^−10M, 12 days after infection) [%] | HIV replication in MDM (HIV RT activity and HIV gag mRNA levels) (HIV Bal strain; SP alone 10^−6M, 12 days after infection)
COc1ccccc1CN[C@H]1C2CCN(CC2)[C@H]1C(c1ccccc1)c1ccccc1 [CP-96,344] | did not affect | did not have the effect |  |  |  |  |  | 
Substance P [SP] |  |  | significantly increased | significantly increases | 58 | 40 | 14 | enhanced HIV replication
